Data from US10800792B2, “Inhibitors of Bruton's tyrosine kinase and method of their use” (JANSSEN PHARMACEUTICA NV, priority 2015, dated 2020).

Target: unphosphorylated-BTK kinase domain (UP-BTK), GST-tagged human BTK (389-659aa) (Homo sapiens (Human), UniProt Q06187)
Experiment: BTK kinase Lanthascreen binding assay
Conditions: pIC50 = negative log of the IC50 in molar; 60 minutes incubation, 50 nM Tracer 236
Procedure, shortened: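 Lanthascreen competition binding; test compound vs fluorescent tracer on unphosphorylated BTK. Output: pIC50 (−log IC50, M).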

Chain of unphosphorylated-BTK kinase domain (UP-BTK), GST-tagged human BTK (389-659aa) (Q06187 389-659): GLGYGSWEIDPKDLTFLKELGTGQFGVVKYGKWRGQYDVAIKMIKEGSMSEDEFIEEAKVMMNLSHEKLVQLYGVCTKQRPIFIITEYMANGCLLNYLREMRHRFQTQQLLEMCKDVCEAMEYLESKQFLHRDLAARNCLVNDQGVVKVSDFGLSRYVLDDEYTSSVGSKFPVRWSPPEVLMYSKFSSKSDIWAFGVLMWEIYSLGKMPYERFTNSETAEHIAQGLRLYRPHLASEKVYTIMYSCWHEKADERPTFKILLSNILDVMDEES

Structure (SMILES) | BTK_I_binding pIC50
Cc1cc(Oc2ccccc2)ccc1N1C(=O)Nc2c(C(=O)N[C@@H]3CCCN(C(=O)[C@H]4CCN(C)C4)C3)sc3nccc1c23 [Example 125, 5-(2-Methyl-4-phenoxyphenyl)-N—((R)-1-((S)-1-methylpyrrolidine-3-carbonyl)piperidin-3-yl)-4-oxo-4,5-dihydro-3H-1-thia-3,5,8-triazaacenaphthylene-2-carboxamide] | 7.2
C=CC(=O)N1CC[C@@H](NC(=O)c2sc3nccc4c3c2NC(=O)N4c2ccc(OC(C)C)cc2C)C1 [Example 126, (R)—N-(1-Acryloylpyrrolidin-3-yl)-5-(4-isopropoxy-2-methylphenyl)-4-oxo-4,5-dihydro-3H-1-thia-3,5,8-triazaacenaphthylene-2-carboxamide] | 6.7
Cc1c(N2C(=O)Nc3c(C(=O)N[C@@H]4CCCN(C(=O)CCO)C4)sc4nccc2c34)ccc(Oc2ccccc2)c1F [Example 128, (R)-5-(3-Fluoro-2-methyl-4-phenoxyphenyl)-N-(1-(3-hydroxypropanoyl)piperidin-3-yl)-4-oxo-4,5-dihydro-3H-1-thia-3,5,8-triazaacenaphthylene-2-carboxamide] | 7.2
Cc1cc(Oc2ccccc2)ccc1N1C(=O)Nc2c(C(=O)NC3COCCN(C)C3)sc3nccc1c23 (stereo not shown) [Example 129, N-(4-Methyl-1,4-oxazepan-6-yl)-5-(2-methyl-4-phenoxyphenyl)-4-oxo-4,5-dihydro-3H-1-thia-3,5,8-triazaacenaphthylene-2-carboxamide] | 6.9
Cc1cc(Oc2ccccc2)ccc1N1C(=O)Nc2c(C(=O)N[C@@H]3CCCN(C(=O)CCN(C)C)C3)sc3nccc1c23 [Example 130, (R)—N-(1-(3-(Dimethylamino)propanoyl)piperidin-3-yl)-5-(2-methyl-4-phenoxyphenyl)-4-oxo-4,5-dihydro-3H-1-thia-3,5,8-triazaacenaphthylene-2-carboxamide] | 7.1
Cc1cc(Oc2ccccc2)ccc1N1C(=O)Nc2c(C(=O)N[C@@H]3CCCN(C(=O)[C@H]4CCNC4)C3)sc3nccc1c23 [Example 131, 5-(2-Methyl-4-phenoxyphenyl)-4-oxo-N—((R)-1-((S)-pyrrolidine-3-carbonyl)piperidin-3-yl)-4,5-dihydro-3H-1-thia-3,5,8-triazaacenaphthylene-2-carboxamide] | 7.5
Cc1cc(Oc2ccccc2)ccc1N1C(=O)Nc2c(C(=O)N[C@H]3CN(C)C[C@H]3F)sc3nccc1c23 [Example 132, N-((3S,4R)-4-Fluoro-1-methylpyrrolidin-3-yl)-5-(2-methyl-4-phenoxyphenyl)-4-oxo-4,5-dihydro-3H-1-thia-3,5,8-triazaacenaphthylene-2-carboxamide] | 7.2
CN1CCC[C@@H](NC(=O)c2sc3nccc4c3c2NC(=O)N4c2ccc(Oc3ccccc3)cc2Cl)C1 [Example 133, (R)-5-(2-Chloro-4-phenoxyphenyl)-N-(1-methylpiperidin-3-yl)-4-oxo-4,5-dihydro-3H-1-thia-3,5,8-triazaacenaphthylene-2-carboxamide] | 7.0
Cc1cc(Oc2ccccc2)ccc1N1C(=O)Nc2c(C(=O)N[C@@H]3CCCN(C(=O)/C(C#N)=C\C(C)(C)N(C)C)C3)sc3nccc1c23 [Example 134, (R,Z)—N-(1-(2-Cyano-4-(dimethylamino)-4-methylpent-2-enoyl)piperidin-3-yl)-5-(2-methyl-4-phenoxyphenyl)-4-oxo-4,5-dihydro-3H-1-thia-3,5,8-triazaacenaphthylene-2-carboxamide] | 7.1
CN1CCC[C@@H](NC(=O)c2sc3nccc4c3c2NC(=O)N4c2ccc(Oc3ccccc3)cc2F)C1 [Example 135, (R)-5-(2-Fluoro-4-phenoxyphenyl)-N-(1-methylpiperidin-3-yl)-4-oxo-4,5-dihydro-3H-1-thia-3,5,8-triazaacenaphthylene-2-carboxamide] | 7.2
Cc1cc(Oc2ccccc2)ccc1N1C(=O)Nc2c(C(=O)N[C@@H]3CCCN(C(=O)C4COC4)C3)sc3nccc1c23 [Example 136, (R)-5-(2-Methyl-4-phenoxyphenyl)-N-(1-(oxetane-3-carbonyl)piperidin-3-yl)-4-oxo-4,5-dihydro-3H-1-thia-3,5,8-triazaacenaphthylene-2-carboxamide] | 7.1
C=CC(=O)N1CC[C@@H](N(C)C(=O)c2sc3nccc4c3c2NC(=O)N4c2ccc(Oc3ccccc3)cc2C)C1 [Example 137, (R)—N-(1-Acryloylpyrrolidin-3-yl)-N-methyl-5-(2-methyl-4-phenoxyphenyl)-4-oxo-4,5-dihydro-3H-1-thia-3,5,8-triazaacenaphthylene-2-carboxamide] | 6.6
Cc1cc(Oc2ccccc2)ccc1N1C(=O)Nc2c(C(=O)N[C@H]3CNC[C@H](F)C3)sc3nccc1c23 [Example 138, N-((3R,5R)-5-fluoropiperidin-3-yl)-5-(2-methyl-4-phenoxyphenyl)-4-oxo-4,5-dihydro-3H-1-thia-3,5,8-triazaacenaphthylene-2-carboxamide] | 7.0

The next lines start with the values.

BTK_I_binding pIC50 | Structure (SMILES)
7.2 | COCCC(=O)N1C[C@H](NC(=O)c2sc3nccc4c3c2NC(=O)N4c2ccc(Oc3ccccc3)cc2C)[C@@H](O)C1 [Example 139, N-((3S,4S)-4-Hydroxy-1-(3-methoxypropanoyl)pyrrolidin-3-yl)-5-(2-methyl-4-phenoxyphenyl)-4-oxo-4,5-dihydro-3H-1-thia-3,5,8-triazaacenaphthylene-2-carboxamide]
6.7 | CC(C)=C(C#N)C(=O)N1CCC[C@@H](NC(=O)c2sc3nccc4c3c2NC(=O)N4c2ccc(Oc3ccccc3)cc2C)C1 [Example 140, (R)—N-(1-(2-Cyano-3-methylbut-2-enoyl)piperidin-3-yl)-5-(2-methyl-4-phenoxyphenyl)-4-oxo-4,5-dihydro-3H-1-thia-3,5,8-triazaacenaphthylene-2-carboxamide]
6.8 | CCN1CC[C@@H](NC(=O)c2sc3nccc4c3c2NC(=O)N4c2ccc(Oc3ccccc3)cc2C)C1 [Example 141, (R)—N-(1-Ethylpyrrolidin-3-yl)-5-(2-methyl-4-phenoxyphenyl)-4-oxo-4,5-dihydro-3H-1-thia-3,5,8-triazaacenaphthylene-2-carboxamide]
7.2 | COC[C@H](OC)C(=O)N1CCC[C@@H](NC(=O)c2sc3nccc4c3c2NC(=O)N4c2ccc(Oc3ccccc3)cc2C)C1 [Example 142, N—((R)-1-((S)-2,3-Dimethoxypropanoyl)piperidin-3-yl)-5-(2-methyl-4-phenoxyphenyl)-4-oxo-4,5-dihydro-3H-1-thia-3,5,8-triazaacenaphthylene-2-carboxamide]
7.3 | COC[C@@H](O)C(=O)N1CCC[C@@H](NC(=O)c2sc3nccc4c3c2NC(=O)N4c2ccc(Oc3ccccc3)cc2C)C1 [Example 143, N—((R)-1-((R)-2-Hydroxy-3-methoxypropanol)piperidin-3-yl)-5-(2-methyl-4-phenoxyphenyl)-4-oxo-4,5-dihydro-3H-1-thia-3,5,8-triazaacenaphthylene-2-carboxamide]
7.5 | C=C(C(=O)N1CCC[C@@H](NC(=O)c2sc3nccc4c3c2NC(=O)N4c2ccc(Oc3ccccc3)cc2C)C1)C(F)(F)F [Example 144, (R)-5-(2-Methyl-4-phenoxyphenyl)-4-oxo-N-(1-(2-(trifluoromethyl)acryloyl)piperidin-3-yl)-4,5-dihydro-3H-1-thia-3,5,8-triazaacenaphthylene-2-carboxamide]
7.0 | Cc1cc(Oc2ccccc2)ccc1N1C(=O)Nc2c(C(=O)N[C@@H]3CCCN(C(=O)[C@@H]4CCN(C)C4)C3)sc3nccc1c23 [Example 145, 5-(2-Methyl-4-phenoxyphenyl)-N—((R)-1-((R)-1-methylpyrrolidine-3-carbonyl)piperidin-3-yl)-4-oxo-4,5-dihydro-3H-1-thia-3,5,8-triazaacenaphthylene-2-carboxamide]
7.4 | Cc1cc(Oc2ccccc2)ccc1N1C(=O)Nc2c(C(=O)N[C@@H]3CCCN(C(=O)CCS(C)(=O)=O)C3)sc3nccc1c23 [Example 146, (R)-5-(2-Methyl-4-phenoxyphenyl)-N-(1-(3-(methylsulfonyl)propanoyl)piperidin-3-yl)-4-oxo-4,5-dihydro-3H-1-thia-3,5,8-triazaacenaphthylene-2-carboxamide]
6.9 | Cc1ccccc1Oc1ccc(N2C(=O)Nc3c(C(=O)N[C@@H]4CCCN(C)C4)sc4nccc2c34)c(C)c1 [Example 148, (R)-5-(2-Methyl-4-(o-tolyloxy)phenyl)-N-(1-methylpiperidin-3-yl)-4-oxo-4,5-dihydro-3H-1-thia-3,5,8-triazaacenaphthylene-2-carboxamide]
6.8 | Cc1cc(Oc2ccccc2)ccc1N1C(=O)Nc2c(C(=O)N[C@@H]3CCN(C4CC4)C3)sc3nccc1c23 [Example 149, (R)—N-(1-Cyclopropylpyrrolidin-3-yl)-5-(2-methyl-4-phenoxyphenyl)-4-oxo-4,5-dihydro-3H-1-thia-3,5,8-triazaacenaphthylene-2-carboxamide]
6.9 | Cc1cc(Oc2ccccc2)ccc1N1C(=O)Nc2c(C(=O)N[C@@H]3CCCN(C(=O)/C(C#N)=C/C(C)(C)N4CCCCC4)C3)sc3nccc1c23 [Example 150, (R,E)-N-(1-(2-Cyano-4-methyl-4-(piperidin-1-yl)pent-2-enoyl)piperidin-3-yl)-5-(2-methyl-4-phenoxyphenyl)-4-oxo-4,5-dihydro-3H-1-thia-3,5,8-triazaacenaphthylene-2-carboxamide]
7.2 | Cc1cc(Oc2ccccc2)ccc1N1C(=O)Nc2c(C(=O)N[C@@H]3CCCN(C(=O)CN)C3)sc3nccc1c23 [Example 151, (R)—N-(1-(2-Aminoacetyl)piperidin-3-yl)-5-(2-methyl-4-phenoxyphenyl)-4-oxo-4,5-dihydro-3H-1-thia-3,5,8-triazaacenaphthylene-2-carboxamide]
